Data from patent US20260022143A1, “Cyclic Peptide Inhibitors of IL-23” (JANSSEN PHARMACEUTICA NV, priority 2022, published 2026).
Starred links: 1 amine or outer side, 2 acyl side, 3 side chain; linkers in the order of their positions; H or OH if unused. Positions of bridges follow the written chain, without caps; N, C: chain ends. Non-standard residues stand in square brackets, D forms with d. Residues, ends and D or L forms follow the SMILES beside them. ξ: configuration not given here. *: point of attachment. Trp(7-(3-AcNH-Ph)) = CC(=O)Nc1cccc(-c2cccc3c(C[C@H](N)C(=O)O)c[nH]c23)c1; Me3N+(CH2)2O(CH2)2O(CH2)2CO = C[N+](C)(C)CCOCCOCCC(=O)*; CH2CH2OCH2CH2OCH2CH2NMe3+ = C[N+](C)(C)CCOCCOCC*; Trp(7-Me) = Cc1cccc2c(C[C@H](N)C(=O)O)c[nH]c12; Abu(4-yl) = O=C([C@H](CC[*:3])N[*:1])[*:2]; 3Pal(5-Me) = Cc1cncc(C[C@H](N)C(=O)O)c1; 2Nal = N[C@@H](Cc1ccc2ccccc2c1)C(=O)O; AEF = NCCOc1ccc(C[C@H](N)C(=O)O)cc1; 3Pal = N[C@@H](Cc1cccnc1)C(=O)O; Ethyl(2-guanidino) = N=C(N)NCC*; Lys(Me) = CNCCCC[C@H](N)C(=O)O; Pen = CC(C)(S)[C@H](N)C(=O)O; ξLys(Me) = CNCCCCC(N)C(=O)O; αMeC = C[C@](N)(CS)C(=O)O; Thp = NC1(C(=O)O)CCOCC1; X3 = C[N+](C)(C)CCCCC*; Sar = CNCC(=O)O

Experiments:
[1] = Exposed Polar Surface Area (EPSA); format: physicochemical; conditions: SFC on Chirex 3014 column; sample 1 mM DMSO stock; read-out: EPSA
Outline: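 SFC retention on a Chirex 3014 (S-valine/(R)-1-(α-naphthyl)ethylamine) column at 35 °C, 4 mL/min, 14 MPa outlet, 5–60% methanol/20 mM ammonium formate gradient in CO2. Retention times converted to EPSA (Å²) via linear calibration with 8 standards; samples from 1 mM DMSO stock, run in duplicate.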

IL-23R = molecular target: T1, IL-23R (Homo sapiens, UniProt Q5VWK5); test: IL23R Reporter Assay; format: cell-based; conditions: HEK293 cells containing IL-23R, IL-12RP1 and STAT-inducible firefly luciferase reporter; 10 ng/mL IL-23 (EC90); 5 h at 37° C.; read-out: IL23R Reporter Assay
T1 construct: host or cells: HEK293
T1 sequence (Q5VWK5 24-629): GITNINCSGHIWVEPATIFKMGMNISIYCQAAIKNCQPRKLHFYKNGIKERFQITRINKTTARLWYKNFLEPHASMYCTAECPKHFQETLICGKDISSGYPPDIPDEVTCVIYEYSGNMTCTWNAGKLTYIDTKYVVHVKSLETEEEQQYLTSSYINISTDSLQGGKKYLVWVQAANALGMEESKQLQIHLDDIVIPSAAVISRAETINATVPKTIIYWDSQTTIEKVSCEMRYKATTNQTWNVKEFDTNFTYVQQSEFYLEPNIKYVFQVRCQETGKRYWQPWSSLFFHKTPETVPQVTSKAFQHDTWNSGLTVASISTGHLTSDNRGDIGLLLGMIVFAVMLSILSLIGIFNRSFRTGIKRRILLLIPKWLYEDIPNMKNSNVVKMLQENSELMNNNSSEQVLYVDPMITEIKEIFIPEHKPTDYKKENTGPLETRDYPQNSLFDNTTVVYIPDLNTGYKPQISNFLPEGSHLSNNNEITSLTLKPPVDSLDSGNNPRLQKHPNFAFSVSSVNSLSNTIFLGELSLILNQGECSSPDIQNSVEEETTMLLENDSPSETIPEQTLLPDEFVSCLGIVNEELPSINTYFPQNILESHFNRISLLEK

Row | SMILES | EPSA [1] | IC50 (IL-23R)
1 | CC(=O)N(C)CCCC[C@@H]1NC(=O)[C@H](Cc2c[nH]c3c(C)cccc23)NC(=O)[C@H]([C@@H](C)O)NC(=O)[C@H](CC(=O)N(C)C)NC(=O)[C@@H](NC(=O)CCOCCOCC[N+](C)(C)C)C(C)(C)SSC(C)(C)[C@@H](C(=O)N[C@@H](Cc2ccc(OCCOCCOCC[N+](C)(C)C)cc2)C(=O)N[C@@H](Cc2ccc3ccccc3c2)C(=O)NC2(C(=O)N[C@@H](CC(C)C)C(=O)N[C@@H](CC(N)=O)C(=O)N[C@@H](Cc3cccnc3)C(=O)N(C)CC(=O)N(C)C)CCOCC2)NC1=O [compound 467, cPEG3aCO-Pen(3)-N(N(Me)2)-T-7MeW-K(NMeAc)-Pen(3)-APEG3F-2Nal-THP-L-N-3Pya-Sar-CON(Me)2] ({Me3N+(CH2)2O(CH2)2O(CH2)2CO}-[Pen]D(NMe2)T[Trp(7-Me)][Lys(Me)](Ac)[Pen]Y(CH2CH2OCH2CH2OCH2CH2NMe3+)[2Nal][Thp]LN[3Pal][Sar]-NMe2; disulfide 1-6) | 154 A^2 | 1.2 nM
2 | CC(=O)N(C)CCCC[C@H](NC(=O)[C@H](C)NC(=O)[C@H](Cc1ccc2ccccc2c1)NC(=O)[C@H](Cc1ccc(OCCOCCOCC[N+](C)(C)C)cc1)NC(=O)[C@H]1NC(=O)[C@H](C)NC(=O)[C@H](Cc2c[nH]c3c(C)cccc23)NC(=O)[C@H]([C@@H](C)O)NC(=O)[C@H](C)NC(=O)[C@@H](NC(=O)CCOCCOCC[N+](C)(C)C)C(C)(C)SSC1(C)C)C(=O)N[C@@H](CC(N)=O)C(=O)N[C@@H](Cc1cccnc1)C(=O)N(C)CC(=O)N(C)C [compound 468, cPEG3aCO-Pen(3)-A-T-7MeW-A-Pen(3)-APEG3f-2Nal-A-K(NMeAc)-N-3Pya-Sar-CON(Me)2] ({Me3N+(CH2)2O(CH2)2O(CH2)2CO}-[Pen]AT[Trp(7-Me)]A[Pen]Y(CH2CH2OCH2CH2OCH2CH2NMe3+)[2Nal]A[Lys(Me)](Ac)N[3Pal][Sar]-NMe2; disulfide 1-6) | 151 A^2 | 25 nM
3 | CC(=O)N(C)CCCC[C@@H]1NC(=O)[C@H](Cc2c[nH]c3c(C)cccc23)NC(=O)[C@H]([C@@H](C)O)NC(=O)[C@H](CC(=O)N(C)C)NC(=O)[C@@H](NC(=O)CCOCCOCC[N+](C)(C)C)C(C)(C)SSC(C)(C)[C@@H](C(=O)N[C@@H](Cc2ccc(OCCOCCOCC[N+](C)(C)C)cc2)C(=O)N[C@@H](Cc2ccc3ccccc3c2)C(=O)NC2(C(=O)N[C@@H](Cc3ccccc3)C(=O)N[C@@H](CC(N)=O)C(=O)N[C@@H](Cc3cccnc3)C(=O)N(C)CC(=O)N(C)C)CCOCC2)NC1=O [compound 469, cPEG3aCO-Pen(3)-N(N(Me)2)-T-7MeW-K(NMeAc)-Pen(3)-APEG3F-2Nal-THP-F-N-3Pya-Sar-CON(Me)2] ({Me3N+(CH2)2O(CH2)2O(CH2)2CO}-[Pen]D(NMe2)T[Trp(7-Me)][Lys(Me)](Ac)[Pen]Y(CH2CH2OCH2CH2OCH2CH2NMe3+)[2Nal][Thp]FN[3Pal][Sar]-NMe2; disulfide 1-6) | 156 A^2 | 2.1 nM
4 | CC(=O)N(C)CCCC[C@@H]1NC(=O)[C@H](Cc2c[nH]c3c(C)cccc23)NC(=O)[C@H]([C@@H](C)O)NC(=O)[C@H](CC(=O)N(C)C)NC(=O)[C@@H](NC(=O)CCOCCOCC[N+](C)(C)C)C(C)(C)SSC(C)(C)[C@@H](C(=O)N[C@@H](Cc2ccc(OCCOCCOCC[N+](C)(C)C)cc2)C(=O)N[C@@H](Cc2ccc3ccccc3c2)C(=O)NC2(C(=O)N[C@@H](Cc3c[nH]c4ccccc34)C(=O)N[C@@H](CC(N)=O)C(=O)N[C@@H](Cc3cccnc3)C(=O)N(C)CC(=O)N(C)C)CCOCC2)NC1=O [compound 470, cPEG3aCO-Pen(3)-N(N(Me)2)-T-7MeW-K(NMeAc)-Pen(3)-APEG3F-2Nal-THP-W-N-3Pya-Sar-CON(Me)2] ({Me3N+(CH2)2O(CH2)2O(CH2)2CO}-[Pen]D(NMe2)T[Trp(7-Me)][Lys(Me)](Ac)[Pen]Y(CH2CH2OCH2CH2OCH2CH2NMe3+)[2Nal][Thp]WN[3Pal][Sar]-NMe2; disulfide 1-6) | 160 A^2 | 1.2 nM
5 | CC(=O)NCCCC[C@@H]1NC(=O)[C@H](Cc2c[nH]c3c(C)cccc23)NC(=O)[C@H]([C@@H](C)O)NC(=O)[C@H](CC(N)=O)NC(=O)[C@@H](NC(=O)CCOCCOCC[N+](C)(C)C)C(C)(C)SSC(C)(C)[C@@H](C(=O)N[C@@H](Cc2ccc(OCCNC(=N)N)cc2)C(=O)N[C@@H](Cc2ccc3ccccc3c2)C(=O)NC2(C(=O)N[C@@H](CCCCNC(C)=O)C(=O)N[C@@H](CC(N)=O)C(=O)N[C@@H](Cc3cccnc3)C(=O)N(C)CC(N)=O)CCOCC2)NC1=O [compound 471, cPEG3aCO-Pen(3)-N-T-7MeW-K(Ac)-Pen(3)-AEF(G)-2Nal-THP-K(Ac)-N-3Pya-Sar-CONH2] ({Me3N+(CH2)2O(CH2)2O(CH2)2CO}-[Pen]NT[Trp(7-Me)]K(Ac)[Pen]Y(Ethyl(2-guanidino))[2Nal][Thp]K(Ac)N[3Pal][Sar]-NH2; disulfide 1-6) | 174 A^2 | 0.69 nM
6 | CC(=O)NCCCC[C@@H]1NC(=O)[C@H](Cc2c[nH]c3c(C)cccc23)NC(=O)[C@H]([C@@H](C)O)NC(=O)[C@H](CC(N)=O)NC(=O)[C@@H](NC(=O)[C@@H](CCCNC(=N)N)NC(=O)CCOCCOCC[N+](C)(C)C)C(C)(C)SSC(C)(C)[C@@H](C(=O)N[C@@H](Cc2ccc(OCCN)cc2)C(=O)N[C@@H](Cc2ccc3ccccc3c2)C(=O)NC2(C(=O)N[C@@H](CCC(=O)O)C(=O)N[C@@H](CC(N)=O)C(=O)N[C@@H](Cc3cncc(C)c3)C(=O)N(C)CC(N)=O)CCOCC2)NC1=O [compound 473, cPEG3aCO-r-Pen(3)-N-T-7MeW-K(Ac)-Pen(3)-AEF-2Nal-THP-E-N-5MePyridinAla-Sar-CONH2] ({Me3N+(CH2)2O(CH2)2O(CH2)2CO}-[dR][Pen]NT[Trp(7-Me)]K(Ac)[Pen][AEF][2Nal][Thp]EN[3Pal(5-Me)][Sar]-NH2; disulfide 2-7) | 202 A^2 | 12 nM
7 | CC(=O)N(C)CCCCC(NC(=O)C1(NC(=O)[C@H](Cc2ccc3ccccc3c2)NC(=O)[C@H](Cc2ccc(OCCOCCOCC[N+](C)(C)C)cc2)NC(=O)[C@@H]2CCSC[C@H](NC(=O)CCOCCOCC[N+](C)(C)C)C(=O)N[C@@H](CC(=O)N(C)C)C(=O)N[C@@H]([C@@H](C)O)C(=O)N[C@@H](Cc3c[nH]c4c(C)cccc34)C(=O)N[C@@H](CCCCN(C)C(C)=O)C(=O)N2)CCOCC1)C(=O)N[C@@H](CC(N)=O)C(=O)N[C@@H](Cc1ccccc1)C(=O)N(C)CC(=O)N(C)C (stereo partly drawn) [compound 475, cPEG3aCO-Abu(1)-N(N(Me)2)-T-7MeW-K(NMeAc)-C(1)-APEG3F-2Nal-THP-K(NMeAc)-N-F-Sar-CON(Me)2] ({Me3N+(CH2)2O(CH2)2O(CH2)2CO}-CD(NMe2)T[Trp(7-Me)][Lys(Me)](Ac)[Abu(4-yl)]Y(CH2CH2OCH2CH2OCH2CH2NMe3+)[2Nal][Thp][ξLys(Me)](Ac)NF[Sar]-NMe2; thioether 1-6) | 153 A^2 | 1540 nM
8 | CC(=O)N(C)CCCCC(NC(=O)C1(NC(=O)[C@H](Cc2ccc3ccccc3c2)NC(=O)[C@H](Cc2ccc(OCCOCCOCC[N+](C)(C)C)cc2)NC(=O)[C@@H]2CSCC[C@H](NC(=O)CCOCCOCC[N+](C)(C)C)C(=O)N[C@@H](CC(=O)N(C)C)C(=O)N[C@@H]([C@@H](C)O)C(=O)N[C@@H](Cc3c[nH]c4c(C)cccc34)C(=O)N[C@@H](CCCCN(C)C(C)=O)C(=O)N2)CCOCC1)C(=O)N[C@@H](CC(N)=O)C(=O)N[C@@H](C)C(=O)N(C)CC(=O)N(C)C (stereo partly drawn) [compound 476, cPEG3aCO-Abu(1)-N(N(Me)2)-T-7MeW-K(NMeAc)-C(1)-APEG3F-2Nal-THP-K(NMeAc)-N-A-Sar-CON(Me)2] ({Me3N+(CH2)2O(CH2)2O(CH2)2CO}-[Abu(4-yl)]D(NMe2)T[Trp(7-Me)][Lys(Me)](Ac)CY(CH2CH2OCH2CH2OCH2CH2NMe3+)[2Nal][Thp][ξLys(Me)](Ac)NA[Sar]-NMe2; thioether 1-6) | 155 A^2 | > 2590 nM
9 | CC(=O)NCCCC[C@@H]1NC(=O)[C@H](Cc2c[nH]c3c(-c4cccc(NC(C)=O)c4)cccc23)NC(=O)[C@H]([C@@H](C)O)NC(=O)[C@H](CC(N)=O)NC(=O)[C@@H](NC(C)=O)CCSC[C@@](C)(C(=O)N[C@@H](Cc2ccc(OCCCCC[N+](C)(C)C)cc2)C(=O)N[C@@H](Cc2ccc3ccccc3c2)C(=O)NC2(C(=O)N[C@@H](CCCCNC(C)=O)C(=O)N[C@@H](CC(N)=O)C(=O)N[C@@H](Cc3cccnc3)C(=O)N(C)CC(N)=O)CCOCC2)NC1=O [compound 477, MeCO-Abu(1)-N-T-7(3NAcPh)W-K(Ac)-aMeC(1)-TMAPF-2Nal-THP-K(Ac)-N-3Pya-Sar-CONH2] (Ac-[Abu(4-yl)]NT[Trp(7-(3-AcNH-Ph))]K(Ac)[αMeC]Y(X3)[2Nal][Thp]K(Ac)N[3Pal][Sar]-NH2; thioether 1-6) | 166 A^2 | 6.1 nM
